Measured values reported in patent US10844092B2, “Peptide for promoting regeneration of dentin or dental pulp tissue” (HysensBio Co., Ltd., priority 2016, dated 2020).

Test system: Dspp gene
Assay: mRNA level of Dspp gene in MDPC-23 cells by real-time PCR
Assay type: cell-based, mouse
Conditions: 48 hours, ratio relative to Dspp mRNA level of control group, triplicate
Protocol: The MDPC-23 cells cultured in Example 2-1 were treated with the peptides of the respective groups which were synthesized in Example 1, and cultured for 48 hours. Then, mRNA levels of an odontoblast differentiation marker Dspp gene expressed in the MDPC-23 cells were measured, and a ratio of the measured Dspp mRNA level relative to a Dspp mRNA level measured in a control group was calculated, respectively (Tables 13 to 24). Further, mean values of the Dspp mRNA levels measured in the peptides of respective groups were compared between the groups (FIG. 1B). In this regard MDPC-23 cells which were treated with none of the peptides of the present invention were used as a control group.
The expression levels of the Dspp gene were measured by RT-PCR and real time PCR analysis: In detail, total RNA was extracted from the MDPC-23 cells with TRIzol reagent. 2 μg of the total RNA, 1 μl of reverse transcriptase, and 0.5 μg oligo (dT) were used to synthesize cDNA. The synthesized cDNA were used in real-time polymerase chain reaction. The real-time polymerase chain reaction was performed on an ABI PRISM 7500 sequence detection system (Applied Biosystems) using the following primers and a SYBR GREEN PCR Master Mix (Takara, Japan). The real-time polymerase chain reaction was performed under conditions of 94° C., 1 min; 95° C., 15 sec 60° C., 34 sec for 40 cycles. Results were analyzed by a comparative cycle threshold (CT) method. In this regard, Gapdh gene was used as an internal control. The experiments were performed in triplicate, and then mean values and standard deviations thereof were taken as measured values.

In the case of “1 (KYQRRKKNKY; Synthetic construct of novel peptide) [compound 1]”, the “mRNA level of Dspp gene, Mean” value is reported as 1.754.
In the case of “2 (KYQRRKRNKY; Synthetic construct of novel peptide) [compound 2]”, the “mRNA level of Dspp gene, Mean” value is reported as 1.646.
With “3 (KYQRRRKNKY; Synthetic construct of novel peptide) [compound 3]” the “mRNA level of Dspp gene, Mean” value was 1.464.
For “4 (KYQRRRRNKY; Synthetic construct of novel peptide) [compound 4]”, the “mRNA level of Dspp gene, Mean” value was 1.855.
For “5 (KYQRKKKNKY; Synthetic construct of novel peptide) [compound 5]”, the “mRNA level of Dspp gene, Mean” value was 1.639.
“6 (KYQRKRKNKY; Synthetic construct of novel peptide) [compound 6]” was tested, and the “mRNA level of Dspp gene, Mean” value was 1.746.
For “7 (KYQRKKRNKY; Synthetic construct of novel peptide) [compound 7]”, the “mRNA level of Dspp gene, Mean” value was 1.864.
With “8 (KYQRKRRNKY; Synthetic construct of novel peptide) [compound 8]” the “mRNA level of Dspp gene, Mean” value was 1.639.
“9 (KYQRRKKSKY; Synthetic construct of novel peptide) [compound 9]” was tested, and the “mRNA level of Dspp gene, Mean” value was 1.854.
In the case of “10 (KYQRRKRSKY; Synthetic construct of novel peptide) [compound 10]”, the “mRNA level of Dspp gene, Mean” value is reported as 1.746.
For “11 (KYQRRRKSKY; Synthetic construct of novel peptide) [compound 11]”, the “mRNA level of Dspp gene, Mean” value was 1.639.
In the case of “12 (KYQRRRRSKY; Synthetic construct of novel peptide) [compound 12]”, the “mRNA level of Dspp gene, Mean” value is reported as 1.548.
For “13 (KYQRKKKSKY; Synthetic construct of novel peptide) [compound 13]”, the “mRNA level of Dspp gene, Mean” value was 1.685.
With “14 (KYQRKRKSKY; Synthetic construct of novel peptide) [compound 14]” the “mRNA level of Dspp gene, Mean” value was 1.846.
In the case of “15 (KYQRKKRSKY; Synthetic construct of novel peptide) [compound 15]”, the “mRNA level of Dspp gene, Mean” value is reported as 1.964.
With “16 (KYQRKRRSKY; Synthetic construct of novel peptide) [compound 16]” the “mRNA level of Dspp gene, Mean” value was 1.739.
With “17 (KYQRRKKNYK; Synthetic construct of novel peptide) [compound 17]” the “mRNA level of Dspp gene, Mean” value was 2.117.
For “18 (KYQRRKRNYK; Synthetic construct of novel peptide) [compound 18]”, the “mRNA level of Dspp gene, Mean” value was 2.319.
With “19 (KYQRRRKNYK; Synthetic construct of novel peptide) [compound 19]” the “mRNA level of Dspp gene, Mean” value was 1.931.
In the case of “20 (KYQRRRRNYK; Synthetic construct of novel peptide) [compound 20]”, the “mRNA level of Dspp gene, Mean” value is reported as 2.553.
In the case of “21 (KYQRKKKNYK; Synthetic construct of novel peptide) [compound 21]”, the “mRNA level of Dspp gene, Mean” value is reported as 1.893.
For “22 (KYQRKRKNYK; Synthetic construct of novel peptide) [compound 22]”, the “mRNA level of Dspp gene, Mean” value was 2.412.
With “23 (KYQRKKRNYK; Synthetic construct of novel peptide) [compound 23]” the “mRNA level of Dspp gene, Mean” value was 2.171.
For “24 (KYQRKRRNYK; Synthetic construct of novel peptide) [compound 24]”, the “mRNA level of Dspp gene, Mean” value was 2.212.
“25 (KYQRRKKSYK; Synthetic construct of novel peptide) [compound 25]” was tested, and the “mRNA level of Dspp gene, Mean” value was 2.371.
For “26 (KYQRRKRSYK; Synthetic construct of novel peptide) [compound 26]”, the “mRNA level of Dspp gene, Mean” value was 2.193.
For “27 (KYQRRRKSYK; Synthetic construct of novel peptide) [compound 27]”, the “mRNA level of Dspp gene, Mean” value was 1.993.
For “28 (KYQRRRRSYK; Synthetic construct of novel peptide) [compound 28]”, the “mRNA level of Dspp gene, Mean” value was 2.453.
“29 (KYQRKKKSYK; Synthetic construct of novel peptide) [compound 29]” was tested, and the “mRNA level of Dspp gene, Mean” value was 1.883.
In the case of “30 (KYQRKRKSYK; Synthetic construct of novel peptide) [compound 30]”, the “mRNA level of Dspp gene, Mean” value is reported as 2.512.
For “31 (KYQRKKRSYK; Synthetic construct of novel peptide) [compound 31]”, the “mRNA level of Dspp gene, Mean” value was 2.371.
For “32 (KYQRKRRSYK; Synthetic construct of novel peptide) [compound 32]”, the “mRNA level of Dspp gene, Mean” value was 2.219.
“33 (KYRQRKKNKY; Synthetic construct of novel peptide) [compound 33]” was tested, and the “mRNA level of Dspp gene, Mean” value was 1.712.
In the case of “34 (KYRQRKRNKY; Synthetic construct of novel peptide) [compound 34]”, the “mRNA level of Dspp gene, Mean” value is reported as 1.931.
With “35 (KYRQRRKNKY; Synthetic construct of novel peptide) [compound 35]” the “mRNA level of Dspp gene, Mean” value was 1.983.
With “36 (KYRQRRRNKY; Synthetic construct of novel peptide) [compound 36]” the “mRNA level of Dspp gene, Mean” value was 2.319.
For “37 (KYRQKKKNKY; Synthetic construct of novel peptide) [compound 37]”, the “mRNA level of Dspp gene, Mean” value was 1.597.
With “38 (KYRQKRKNKY; Synthetic construct of novel peptide) [compound 38]” the “mRNA level of Dspp gene, Mean” value was 2.116.
With “39 (KYRQKKRNKY; Synthetic construct of novel peptide) [compound 39]” the “mRNA level of Dspp gene, Mean” value was 1.712.
With “40 (KYRQKRRNKY; Synthetic construct of novel peptide) [compound 40]” the “mRNA level of Dspp gene, Mean” value was 2.219.
“41 (KYRQRKKSKY; Synthetic construct of novel peptide) [compound 41]” was tested, and the “mRNA level of Dspp gene, Mean” value was 1.546.
For “42 (KYRQRKRSKY; Synthetic construct of novel peptide) [compound 42]”, the “mRNA level of Dspp gene, Mean” value was 1.586.
For “43 (KYRQRRKSKY; Synthetic construct of novel peptide) [compound 43]”, the “mRNA level of Dspp gene, Mean” value was 1.669.
“44 (KYRQRRRSKY; Synthetic construct of novel peptide) [compound 44]” was tested, and the “mRNA level of Dspp gene, Mean” value was 1.793.
For “45 (KYRQKKKSKY; Synthetic construct of novel peptide) [compound 45]”, the “mRNA level of Dspp gene, Mean” value was 1.532.
For “46 (KYRQKRKSKY; Synthetic construct of novel peptide) [compound 46]”, the “mRNA level of Dspp gene, Mean” value was 1.887.
For “47 (KYRQKKRSKY; Synthetic construct of novel peptide) [compound 47]”, the “mRNA level of Dspp gene, Mean” value was 1.697.
For “48 (KYRQKRRSKY; Synthetic construct of novel peptide) [compound 48]”, the “mRNA level of Dspp gene, Mean” value was 1.558.
